This is an account of results in patent US20160206629A1, “TOPICAL COMPOSITION COMPRISING A FILM-FORMING POLYMER FOR DELIVERING AN ACTIVE INGREDIENT TO SKIN” (LEO Pharma A/S, priority 2012, published 2016).

The series in a line: In vitro skin penetration, full thickness pig ear skin, Franz-type diffusion cells, 3H-BMV. The class given is in vitro ADME. The method, then: To investigate the skin penetration and permeation of BMV from compositions according to example 1, a skin diffusion experiment was conducted. Full thickness skin from pig ears was used in the study. The skin was cleaned and kept frozen at −18° C. before use. On the day prior to the experiment the skin was placed in a refrigerator (5±3° C.) for slow defrosting.
Static Franz-type diffusion cells with an available diffusion area of 3.14 cm^2 and receptor volumes ranging from 8.6 to 11.1 ml were used in substantially the manner described by T. J. Franz, “The finite dose technique as a valid in vitro model for the study of percutaneous absorption in man”, in Current Problems in Dermatology, 1978, J. W. H. Mall (Ed.), Karger, Basel, pp. 58-68. The specific volume was measured and registered for each cell. A magnetic bar was placed in the receptor compartment of each cell. After mounting the skin, physiological saline (35° C.) was filled into each receptor chamber for hydration of the skin. The cells were placed in a thermally controlled water bath which was placed on a magnetic stirrer set at 300 rpm. […]
Samples (1 ml) of the receptor fluid remaining in the diffusion cell were collected and analysed.
The concentration of ^3H-BMV in the samples were determined by liquid scintillation counting.

On to `CCCCC(=O)O[C@]1(C(=O)CO)[C@@H](C)C[C@H]2[C@@H]3CCC4=CC(=O)C=C[C@]4(C)[C@@]3(F)[C@@H](O)C[C@@]21C` [BMV, betamethasone valerate], for which the “permeation of BMV into the receptor medium” value (receptor medium acetate buffer pH 5.5 with 1% methyl-β-cyclodextrin) is listed as “None”. In addition, the “accumulation of BMV in skin layers” value (stratum corneum versus epidermis, FIG. 3) is on record as “mainly accumulated in the stratum corneum”.
